Reference: ChEMBL document CHEMBL6153137, “Design, Synthesis, and Biological Evaluation of Novel Orally Available Covalent CDK12/13 Dual Inhibitors for the Treatment of Tumors” (J Med Chem, 2025)
Values after ≈ are worked out from the molar mass of the structure shown. Active and inactive are the calls of the source. No cut-off for these calls is given here.

Key:
[1] = Half life in male Sprague-Dawley rat at 20 mg/kg, po administered via gavage and measured on day 1; format: ADME, organism-based; settings: in vivo
[2] = Half life in Sprague-Dawley rat at 150 mg/kg, po measured for 24 hrs by LC-MS/MS analysis; format: ADME, organism-based; settings: in vivo
[3] = Cmax in Balb/c mouse xenografted with human SUM149PT cells at 30 mg/kg, po administered once daily via gavage; format: ADME, organism-based; settings: in vivo
[4] = biological target: CDK1/Cyclin A (Homo sapiens) (UniProt P06493+P20248); experiment: Inhibition of human recombinant N-terminal GST-tagged CDK1/N-terminal GST-tagged and C-terminal 8X His-tagged Cyclin A2 expressed in HEP Sf9 cells using ATP as substrate at 2 uM measured after 60 mins by ADP-Glo reagent based luminescence analysis
CDK1/Cyclin A (Homo sapiens), sequence (P06493 whole entry, looked up): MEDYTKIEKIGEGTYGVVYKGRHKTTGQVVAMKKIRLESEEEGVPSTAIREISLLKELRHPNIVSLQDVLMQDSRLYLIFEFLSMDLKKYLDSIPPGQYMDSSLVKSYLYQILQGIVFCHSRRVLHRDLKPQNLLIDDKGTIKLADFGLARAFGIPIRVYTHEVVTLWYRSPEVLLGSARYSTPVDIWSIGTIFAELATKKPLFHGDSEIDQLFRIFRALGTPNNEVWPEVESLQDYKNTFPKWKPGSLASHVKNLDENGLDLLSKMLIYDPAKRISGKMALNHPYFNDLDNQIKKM
CDK1/Cyclin A (Homo sapiens), sequence (P20248 whole entry, looked up): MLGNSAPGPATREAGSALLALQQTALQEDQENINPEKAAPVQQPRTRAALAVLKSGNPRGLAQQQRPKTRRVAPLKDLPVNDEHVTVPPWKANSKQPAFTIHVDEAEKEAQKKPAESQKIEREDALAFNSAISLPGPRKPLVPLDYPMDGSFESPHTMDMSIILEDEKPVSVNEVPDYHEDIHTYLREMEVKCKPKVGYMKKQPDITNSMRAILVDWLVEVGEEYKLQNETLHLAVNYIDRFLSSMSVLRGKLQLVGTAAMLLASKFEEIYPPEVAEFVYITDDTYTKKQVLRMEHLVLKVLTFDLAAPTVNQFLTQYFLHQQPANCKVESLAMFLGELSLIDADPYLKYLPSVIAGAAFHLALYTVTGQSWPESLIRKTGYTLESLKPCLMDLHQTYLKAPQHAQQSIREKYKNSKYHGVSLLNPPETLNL

[5] = Toxicity against female Sprague-Dawley rat assessed as body weight loss at 30 mg/kg, po administered once daily via gavage for 28 days and measured twice a week; format: organism-based; settings: in vivo, 672 h, time 28 day
[6] = Half life in male Sprague-Dawley rat at 40 mg/kg, po administered via gavage and measured on day 1; format: ADME, organism-based; settings: in vivo, time 1 day
[7] = Permeability of the compound in human Caco-2 cells at 2 uM incubated for 2 hrs by LC-MS/MS analysis; format: ADME, cell-based; settings: read-out: permeability
[8] = AUC(0 to t) in female Sprague-Dawley rat at 7.5 mg/kg, po administered once daily via gavage for 28 days; format: ADME, organism-based; settings: in vivo, 672 h, time 28 day
DLD-1 = experiment: Antiproliferative activity against human DLD-1 cells assessed as reduction in cell viability incubated for 7 days by CellTiter-Glo reagent based luminescence analysis; format: functional; settings: DLD-1, 168 h
[9] = biological target: Cyclin-dependent kinase 12/13 (Homo sapiens) (UniProt Q14004+Q9NYV4); experiment: Inhibition of CDK12/13 in human SUM149PT cells assessed as reduction in BRCA1 gene expression at 500 nM incubated for 8 to 24 hrs by qPCR analysis; format: cell-based; settings: time lower 8.0 hrs, time upper […]
[10] = Toxicity against male Sprague-Dawley rat assessed as effect on body weight at 10 to 20 mg/kg, po administered once daily via gavage for 28 days and measured twice a week; format: organism-based; settings: in vivo, 672 h, dose 10-20 mg/kg, time 28 day
[11] = Toxicity against female Sprague-Dawley rat assessed as effect on hemoglobin level at 7.5 to 30 mg/kg, po administered once daily via gavage for 28 days and measured on day 29; format: organism-based; settings: in vivo, 696 h, dose 7.5-30 mg/kg, time 29 day
[12] = Toxicity against female Sprague-Dawley rat assessed as effect on body weight at 7.5 to 15 mg/kg, po administered once daily via gavage for 28 days and measured twice a week; format: organism-based; settings: in vivo, 672 h, dose 7.5-15 mg/kg, time 28 day
[13] = Toxicity against female Sprague-Dawley rat assessed as effect on hematocrit level at 7.5 to 30 mg/kg, po administered once daily via gavage for 28 days and measured on day 29; format: organism-based; settings: in vivo, 696 h, dose 7.5-30 mg/kg, time 29 day
[14] = biological target: Cyclin-dependent kinase 5/CDK5 activator 1 (Homo sapiens) (UniProt Q00535+Q15078); experiment: Inhibition of human recombinant N-terminal GST-tagged CDK5/N-terminal GST-tagged p35NCK expressed in HEP Sf9 cells using ATP as substrate at 2 uM measured after 60 mins by ADP-Glo reagent based luminescence analysis
Cyclin-dependent kinase 5/CDK5 activator 1 (Homo sapiens), sequence (Q00535 whole entry): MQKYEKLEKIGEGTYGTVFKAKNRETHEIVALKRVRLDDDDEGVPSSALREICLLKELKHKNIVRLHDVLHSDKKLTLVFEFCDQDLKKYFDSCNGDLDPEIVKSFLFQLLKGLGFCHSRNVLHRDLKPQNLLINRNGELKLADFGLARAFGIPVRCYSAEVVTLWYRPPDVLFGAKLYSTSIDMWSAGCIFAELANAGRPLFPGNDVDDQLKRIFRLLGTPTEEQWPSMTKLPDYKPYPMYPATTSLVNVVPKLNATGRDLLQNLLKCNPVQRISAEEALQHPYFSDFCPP
Cyclin-dependent kinase 5/CDK5 activator 1 (Homo sapiens), sequence (Q15078 99-307 partner limits assumed): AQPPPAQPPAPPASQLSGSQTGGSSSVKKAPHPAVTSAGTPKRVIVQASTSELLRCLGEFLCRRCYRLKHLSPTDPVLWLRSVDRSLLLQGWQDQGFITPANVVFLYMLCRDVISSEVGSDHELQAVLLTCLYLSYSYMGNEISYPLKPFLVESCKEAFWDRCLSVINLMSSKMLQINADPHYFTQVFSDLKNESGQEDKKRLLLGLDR

[15] = AUC in Balb/c mouse xenografted with human SUM149PT cells at 60 mg/kg, po administered once daily via gavage; format: ADME, organism-based; settings: in vivo
[16] = Toxicity against male Sprague-Dawley rat assessed as effect on red blood cells level at 10 to 40 mg/kg, po administered once daily via gavage for 28 days and measured on day 29; format: organism-based; settings: in vivo, 696 h, dose 10-40 mg/kg, time 29 day
[17] = biological target: Cyclin-Y/Cyclin-dependent kinase 16 (Homo sapiens) (UniProt Q00536+Q8ND76); experiment: Inhibition of human recombinant N-terminal GST-tagged CDK16/N-terminal GST-tagged Cyclin Y expressed in HEP Sf9 cells using ATP as substrate at 2 uM measured after 60 mins by ADP-Glo reagent based luminescence analysis
[18] = AUC(0 to t) in female Sprague-Dawley rat at 30 mg/kg, po administered once daily via gavage for 28 days; format: ADME, organism-based; settings: in vivo, 672 h, time 28 day
[19] = Toxicity against male Sprague-Dawley rat assessed as effect on AST level in blood at 10 to 40 mg/kg, po administered once daily via gavage for 28 days and measured on day 29; format: organism-based; settings: in vivo, 696 h, dose 10-40 mg/kg, time 29 day
[20] = biological target: Cyclin-dependent kinase 7 (Homo sapiens) (UniProt P50613); experiment: Inhibition of CDK7 in human SUM149PT cells assessed as reduction in level of phosphorylation of Ser5 on RNA Pol II CTD at 500 nM incubated for 12 hrs followed by drug wash-out and measured after 72 hrs by western blot analysis; format: cell-based
Cyclin-dependent kinase 7 (Homo sapiens), sequence (P50613 whole entry): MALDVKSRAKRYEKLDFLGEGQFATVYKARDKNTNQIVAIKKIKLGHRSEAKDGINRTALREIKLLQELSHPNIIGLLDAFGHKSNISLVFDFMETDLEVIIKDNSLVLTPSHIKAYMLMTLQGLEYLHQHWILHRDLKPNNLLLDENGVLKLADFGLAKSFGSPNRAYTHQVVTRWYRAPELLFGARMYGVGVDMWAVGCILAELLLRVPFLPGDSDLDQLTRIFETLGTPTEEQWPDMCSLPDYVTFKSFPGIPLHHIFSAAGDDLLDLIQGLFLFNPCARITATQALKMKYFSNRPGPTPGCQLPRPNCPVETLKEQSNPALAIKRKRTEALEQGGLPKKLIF

SUM149PT = experiment: Antitumor activity against human SUM149PT cells xenografted in Balb/c mouse assessed as inhibition of tumor growth at 60 mg/kg, po administered once daily via gavage and measured on day 20; format: functional; settings: 480 h, time 20 day, read-out: TGI
[21] = biological target: Cyclin-dependent kinase 13/Cyclin-K (Homo sapiens) (UniProt Q14004+O75909); experiment: Inhibition of human recombinant N-terminal GST-tagged CDK13/N-terminal FLAG and C-terminal His-tagged Cyclin K expressed in HEP Sf9 cells using ATP as substrate at 2 uM measured after 60 mins by ADP-Glo reagent based luminescence assay
Cyclin-dependent kinase 13/Cyclin-K (Homo sapiens), sequence (O75909 whole entry, looked up): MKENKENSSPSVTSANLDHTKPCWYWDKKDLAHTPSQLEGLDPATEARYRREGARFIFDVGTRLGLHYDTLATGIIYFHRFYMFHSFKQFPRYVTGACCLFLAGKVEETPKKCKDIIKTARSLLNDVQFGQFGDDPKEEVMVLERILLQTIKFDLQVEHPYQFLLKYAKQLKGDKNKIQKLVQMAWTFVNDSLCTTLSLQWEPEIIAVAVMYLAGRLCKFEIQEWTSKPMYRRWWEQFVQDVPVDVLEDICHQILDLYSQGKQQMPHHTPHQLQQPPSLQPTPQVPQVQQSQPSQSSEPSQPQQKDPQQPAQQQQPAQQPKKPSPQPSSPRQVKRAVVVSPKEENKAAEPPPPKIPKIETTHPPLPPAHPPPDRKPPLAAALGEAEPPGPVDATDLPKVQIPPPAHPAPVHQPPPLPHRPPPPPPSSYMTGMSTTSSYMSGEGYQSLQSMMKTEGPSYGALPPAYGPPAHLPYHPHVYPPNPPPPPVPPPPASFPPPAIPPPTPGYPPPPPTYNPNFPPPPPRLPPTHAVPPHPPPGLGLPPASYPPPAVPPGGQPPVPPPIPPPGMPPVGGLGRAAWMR
Cyclin-dependent kinase 13/Cyclin-K (Homo sapiens), sequence (Q14004 whole entry, looked up): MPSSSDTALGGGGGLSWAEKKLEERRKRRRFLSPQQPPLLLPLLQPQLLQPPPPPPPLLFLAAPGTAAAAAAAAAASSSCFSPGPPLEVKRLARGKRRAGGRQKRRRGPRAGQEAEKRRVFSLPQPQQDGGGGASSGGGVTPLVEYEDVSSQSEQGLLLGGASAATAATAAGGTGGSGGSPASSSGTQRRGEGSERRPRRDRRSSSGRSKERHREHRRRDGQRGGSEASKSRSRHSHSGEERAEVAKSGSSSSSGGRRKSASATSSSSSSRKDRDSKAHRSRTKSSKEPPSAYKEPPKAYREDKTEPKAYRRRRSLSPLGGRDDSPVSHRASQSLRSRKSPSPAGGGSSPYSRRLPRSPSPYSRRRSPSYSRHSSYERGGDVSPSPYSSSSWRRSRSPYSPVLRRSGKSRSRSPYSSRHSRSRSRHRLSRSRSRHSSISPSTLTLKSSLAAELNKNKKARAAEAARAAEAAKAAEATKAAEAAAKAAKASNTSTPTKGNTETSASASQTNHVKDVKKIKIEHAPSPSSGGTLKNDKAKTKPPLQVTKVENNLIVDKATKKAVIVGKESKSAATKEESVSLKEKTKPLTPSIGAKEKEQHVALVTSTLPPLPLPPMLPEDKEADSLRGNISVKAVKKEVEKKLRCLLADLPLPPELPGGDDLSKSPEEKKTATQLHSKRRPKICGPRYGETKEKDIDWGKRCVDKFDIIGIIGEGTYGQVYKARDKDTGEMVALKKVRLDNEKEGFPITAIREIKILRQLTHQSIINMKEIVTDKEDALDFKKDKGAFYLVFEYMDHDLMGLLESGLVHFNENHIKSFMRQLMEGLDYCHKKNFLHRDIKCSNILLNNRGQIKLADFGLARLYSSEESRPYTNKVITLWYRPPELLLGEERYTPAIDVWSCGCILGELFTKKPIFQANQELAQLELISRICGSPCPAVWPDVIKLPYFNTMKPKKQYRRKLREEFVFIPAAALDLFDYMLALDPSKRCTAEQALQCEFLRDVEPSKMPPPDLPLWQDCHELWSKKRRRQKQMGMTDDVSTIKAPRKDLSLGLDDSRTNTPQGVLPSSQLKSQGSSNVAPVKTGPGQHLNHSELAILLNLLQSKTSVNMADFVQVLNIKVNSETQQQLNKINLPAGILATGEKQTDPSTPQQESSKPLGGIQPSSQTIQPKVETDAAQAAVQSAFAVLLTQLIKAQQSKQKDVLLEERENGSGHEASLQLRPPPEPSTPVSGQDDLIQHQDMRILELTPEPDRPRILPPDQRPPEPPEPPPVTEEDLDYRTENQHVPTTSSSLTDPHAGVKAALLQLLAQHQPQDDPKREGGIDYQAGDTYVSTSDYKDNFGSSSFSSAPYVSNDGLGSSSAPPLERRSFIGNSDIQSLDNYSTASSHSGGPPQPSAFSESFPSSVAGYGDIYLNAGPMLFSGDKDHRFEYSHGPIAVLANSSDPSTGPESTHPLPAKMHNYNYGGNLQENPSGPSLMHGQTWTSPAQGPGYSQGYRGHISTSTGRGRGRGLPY

[22] = Ratio of drug level in tumor to plasma in Balb/c mouse xenografted with human MV4-11 cells at 30 mg/kg, po administered via gavage and measured after 2 hrs; format: ADME, organism-based
[23] = Toxicity against female Sprague-Dawley rat assessed as effect on mean corpuscular volume at 7.5 to 30 mg/kg, po administered once daily via gavage for 28 days and measured on day 29; format: organism-based; settings: in vivo, 696 h, dose 7.5-30 mg/kg, time 29 day
[24] = Kinetic solubility of the compound in phosphate buffer at pH 7.4 measured after 24 hrs by HPLC-UV analysis; format: physicochemical; settings: read-out: Kinetic_solubility
[25] = Toxicity against male Sprague-Dawley rat assessed as effect on sodium level in blood at 10 to 40 mg/kg, po administered once daily via gavage for 28 days and measured on day 29; format: organism-based; settings: in vivo, 696 h, dose 10-40 mg/kg, time 29 day
[26] = Half life in male Sprague-Dawley rat at 10 mg/kg, po administered via gavage and measured on day 1; format: ADME, organism-based; settings: in vivo, time 1 day
[27] = Toxicity against female Sprague-Dawley rat assessed as effect on sodium level in blood at 7.5 to 30 mg/kg, po administered once daily via gavage for 28 days and measured on day 29; format: organism-based; settings: in vivo, 696 h, dose 7.5-30 mg/kg, time 29 day
[28] = Cmax in female Sprague-Dawley rat at 30 mg/kg, po administered once daily via gavage for 28 days; format: ADME, organism-based; settings: in vivo, time 28 day
[29] = Protein binding in human plasma assessed as free fraction at 400 uM incubated for 4 hrs by equilibrium dialysis method based LC-MS/MS analysis; format: ADME, cell-free
Mus musculus = experiment: In vivo inhibition of CDK7 in Balb/c mouse xenografted with human SUM149PT cells assessed as reduction in phosphorylation of Ser5 on RNA Pol II at 15 to 30 mg/kg, po administered once daily via gavage and measured at 4 hrs post-last drug dosage by western blot analysis; format: functional, organism-based; settings: dose 15-30 mg/kg

## C=CC(=O)N1CCc2c(ncnc2N2CC[C@@H](Nc3ncc(Cl)c(OC)n3)C2)C1
[1]
  half-life: 246 min
[2]
  half-life: 1270 min
[3]
  Cmax: 1980 ng/mL
[4]
  inhibition: 10%
[5]
  Activity: Toxic
[6]
  half-life: 372 min
[7]
  Papp at 2 h, 2 µM: 4.6 ×10⁻⁶ cm/s
[8]
  AUCt: 1760 ng·h/mL
DLD-1
  IC50: 135 nM
[9]
  inhibition: Active
[10]
  Activity: Non-toxic
[11]
  Activity: Non-toxic
[12]
  Activity: Non-toxic
[13]
  Activity: Non-toxic
[14]
  inhibition: 62%
[15]
  AUC: 4620 ng·h/mL
[16]
  Activity: Non-toxic
[17]
  inhibition: 64%
[18]
  AUCt: 7860 ng·h/mL
[19]
  Activity: Non-toxic
[20]
  inhibition: inactive
SUM149PT
  inhibition in vivo at 60 mg/kg: 114%
[21]
  inhibition: 83%
[22]
  Kp at 2 h: 0.46
[23]
  Activity: Non-toxic
[24]
  solubility kinetic at 24 h: 59.4 µg/mL (≈ 143 µM)
[25]
  Activity: Non-toxic
[26]
  half-life: 192 min
[27]
  Activity: Non-toxic
[28]
  Cmax: 1690 ng/mL
[29]
  fraction unbound at 4 h, 400 µM: 0.127
Mus musculus
  inhibition: inactive
